Laboratory results from patent publication US12570614B2, “Phenyl amino pyrimidine compounds and uses thereof” (GlaxoSmithKline LLC, priority 2007, dated 2026).

Key:
BaF3 wild-type cells = test: Cellular screening, BaF3 wild-type cells (Alamar Blue); type: cell-based; conditions: Mus musculus, 48-72 hr incubation, read-out: BAF3wt_IC50_μM
Method: (§1) For screening purposes, compounds were diluted in 96 well plates at a concentration of 20 μM. Plates were warmed at 37° C. for 30 minutes before the assay was performed.
(§2) The growth factor dependent myelomonocytic cell line BaF3 bearing the pTET-off plasmid (Clontech) was transfected with either pTELJAK2 or pTELJAK3, and the transfected cells were selected for growth-factor independent cell growth. The BaF3 wild-type cells were cultured in DMEM containing 10% FCS, 10% WEHI 3B conditioned medium. The BaF3 TELJAK cells ([…]) were cultured in DMEM 10% Tet-System Approved FBS (without WEHI 3B conditioned medium).
(§3) Cell suspensions were prepared by harvesting cells from culture (the cells used in this test were in late log phase growth with high viability.) Cells were diluted in the appropriate growth medium, as described above, to 1.1× final concentration (from 50,000 cell/mL to 200,000 cell/mL, depending on cell line).
(§4) Compounds to be tested were added (10 μL, 10× final concentration) to a flat bottomed 96-well plate. The cellular suspension (90 μL per well) was then added, and the plate incubated for 48-72 hr at 37° C., 5% CO2. Alamar Blue 10 μL per well was added and the plates returned to the incubator for a further 4-6 hours. The plates were then read at 544 nm.
(§5) Result are given in table 2 where +++ is <1 μM, ++ is <5 μM and + is <20 μM

[1] = test system: BaF3 TELJAK cells (BafT_J2); test: Cellular screening, BaF3 TELJAK2 cells (Alamar Blue); type: cell-based; conditions: Mus musculus, BaF3; 48-72 hr incubation; read-out: BafT_J2_IC50_μM
Method: as §1
A TEL/Jak2 fusion was generated by digestion of the TELPCR product with BamH I/Sal I restriction enzymes, digestion of the JAK2 PCR product with Sal I/Not I restriction enzymes, followed by ligation and subcloning of the ligation product into the mammalian expression Vector pTRE 2 (Clontech), which was prepared by digestion with BamH I—Not I restriction enzymes, to give the TEL/Jak2 fusion plasmid pTELJAK2.
as §2, §3
as §4, with “hours.” for “hours. The plates were then read at 544 nm.”
as §5

CTLL2 = test: Cellular screening, CTLL2 cells (Alamar Blue); type: cell-based; conditions: Mus musculus, CTLL-2; 48-72 hr incubation; read-out: CTLL2_IC50_μM
Method: as §1, §3, §4, §5

human JAK2 = human JAK2 (Homo sapiens (Human), UniProt O60674); test: JAK2 kinase domain Alphascreen enzyme screening; type: biochemical; conditions: read-out: JAK2_IC50_nM
Chain of human JAK2 (O60674 849-1124): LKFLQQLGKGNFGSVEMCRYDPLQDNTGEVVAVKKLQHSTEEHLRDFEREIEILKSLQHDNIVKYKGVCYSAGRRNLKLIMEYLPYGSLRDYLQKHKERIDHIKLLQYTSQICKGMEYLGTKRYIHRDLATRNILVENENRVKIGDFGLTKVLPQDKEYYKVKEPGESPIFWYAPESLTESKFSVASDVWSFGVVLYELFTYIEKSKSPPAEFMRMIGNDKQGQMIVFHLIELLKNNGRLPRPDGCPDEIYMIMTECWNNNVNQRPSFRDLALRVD
Method: (§6) For screening purposes, compounds (in 100% DMSO) were warmed at 37° C. for at least 20 minutes before use. A […] stock was initially made in assay buffer, where the final concentration of DMSO was 0.3%. The stocks were then diluted in 384 well Optiplates (Packard) where the final concentration of the compound was 5 μM.
The kinase domain of human JAK2 was amplified from U937 mRNA using the polymerase chain reaction with the following primers: […]
The JAK2 PCR products were cloned into the pDest20 destination vector (Gibco). The JAK2 plasmid was then transformed into competent DH10Bac cells (Gibco), and the recombinant baculovirus was prepared via Sf9 insect cell transfection.
(§7) Baculovirus preparations from each of the JAK family members were infected into one litre of […] (Spodoptera frugiperda) cells (Invitrogen) grown in SF900II serum free medium (Invitrogen) to a cell density of approximately 2×10^6 cells/ml. Cells were infected with virus at a cell culture to virus stock ratio of 20:1. Cells were harvested and lysed 48 hours post infection. The GST-tagged JAK kinase domains were purified by affinity chromatography on a GSH agarose column (Scientifix).
Alphascreen phosphotyrosine acceptor beads followed by streptavidin donor beads at a concentration of 1/100 in stop buffer were added to each well under subdued light and incubated for 2-3 hours. The Alphascreen plates were read on a Packard Fusion Alpha instrument

human JAK3 = human JAK3 (Homo sapiens (Human), UniProt P52333); test: JAK3 kinase domain Alphascreen enzyme screening; type: biochemical; conditions: read-out: JAK3_ IC50_nM
Chain of human JAK3 (P52333 822-1111): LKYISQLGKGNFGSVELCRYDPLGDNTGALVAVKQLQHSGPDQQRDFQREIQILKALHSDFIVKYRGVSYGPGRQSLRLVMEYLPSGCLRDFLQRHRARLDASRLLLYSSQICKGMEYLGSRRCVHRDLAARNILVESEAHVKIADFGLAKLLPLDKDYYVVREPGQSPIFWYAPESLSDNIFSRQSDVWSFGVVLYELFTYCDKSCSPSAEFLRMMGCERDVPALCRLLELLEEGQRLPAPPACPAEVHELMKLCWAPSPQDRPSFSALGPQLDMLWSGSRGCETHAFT
Method: as §6
The kinase domain of human JAK3 was amplified from U937 mRNA using the polymerase chain reaction with the following primers: […]
The JAK3 PCR products were cloned into the pDest20 destination expression vector (Gibco). The JAK3 plasmid was then transformed into competent DH10Bac cells (Gibco), and the recombinant baculovirus was prepared via Sf9 insect cell transfection.
as §7
The compounds were then incubated with substrate in the presence of either […] ATP for 60 or 90 minutes. […] (final concentration 111 μM) or substrate-2 substrate with the sequence biotin-[…] [SEQ ID NO: 16] (final concentration 133 μM). Alphascreen phosphotyrosine acceptor beads followed by streptavidin donor beads at a concentration of 1/100 in stop buffer were added to each well under subdued light and incubated for 2-3 hours. The Alphascreen plates were read on a Packard Fusion Alpha instrument

| Structure (SMILES) | IC50 (BaF3 wild-type cells) [nM] | IC50 [1] [nM] | IC50 (CTLL2) [nM] | IC50 (human JAK2) [nM] | IC50 (human JAK3) [nM] |
| --- | --- | --- | --- | --- | --- |
| CCOC(=O)c1ccc(-c2ccnc(Nc3ccc(N4CCOCC4)cc3)n2)cc1 [Compound 1, ethyl 4-(2-(4-morpholinophenyl-amino)pyrimidin-4-yl)benzoate] | > 20000 | > 20000 | > 20000 | – | – |
| N#Cc1cccc(-c2ccnc(Nc3ccc(N4CCOCC4)cc3)n2)c1 [Compound 5, 3-(2-(4-morpholinophenyl-amino)pyrimidin-4-yl)benzonitrile] | – | > 20000 | – | < 500 | – |
| N#Cc1cc(-c2ccnc(Nc3ccc(N4CCOCC4)cc3)n2)ccc1F [Compound 7, 2-fluoro-5-(2-(4-morpholinophenyl-amino)pyrimidin-4-yl)benzonitrile] | – | – | – | > 1000 | – |
| COc1cc(Nc2nccc(-c3ccc(F)c(C#N)c3)n2)cc(OC)c1OC [Compound 8, 2-fluoro-5-(2-(3,4,5-trimethoxyphenyl-amino)pyrimidin-4-yl)benzonitrile] | – | – | – | < 500 | – |
| N#Cc1cc(-c2ccnc(Nc3ccc(N4CCOCC4)cc3)n2)ccc1O [Compound 9, 2-hydroxy-5-(2-(4-morpholinophenyl-amino)pyrimidin-4-yl)benzonitrile] | < 5000 | < 5000 | < 5000 | < 500 | < 500 |
| Cc1cc(-c2ccnc(Nc3ccc(N4CCOCC4)cc3)n2)ccc1C(=O)NCC#N [Compound 11, N-(cyanomethyl)-2-methyl-4-(2-(4-morpholinophenyl-amino)pyrimidin-4-yl)benzamide] | – | – | < 5000 | < 100 | – |
| COc1cc(-c2ccnc(Nc3ccc(N4CCOCC4)cc3)n2)ccc1C#N [Compound 16, 2-methoxy-4-(2-(4-morpholinophenyl-amino)pyrimidin-4-yl)benzonitrile] | > 20000 | > 20000 | > 20000 | > 1000 | > 1000 |
| O=C(NCc1ccncc1)c1ccc(-c2ccnc(Nc3ccc(N4CCOCC4)cc3)n2)cc1 [Compound 17, 4-(2-(4-morpholinophenyl-amino)pyrimidin-4-yl)-N-(pyridin-4-ylmethyl)benzamide] | < 20000 | < 5000 | > 20000 | < 500 | < 1000 |
| O=C(NCc1cccnc1)c1ccc(-c2ccnc(Nc3ccc(N4CCOCC4)cc3)n2)cc1 [Compound 18, 4-(2-(4-morpholinophenyl-amino)pyrimidin-4-yl)-N-(pyridin-3-ylmethyl)benzamide] | > 20000 | < 5000 | < 20000 | < 500 | < 1000 |
| N#Cc1ccc(-c2ccnc(Nc3ccc(N4CCOCC4)cc3)n2)cc1Cl [Compound 19, 2-chloro-4-(2-(4-morpholinophenyl-amino)pyrimidin-4-yl)benzonitrile] | – | > 20000 | – | > 1000 | > 1000 |
| COc1cc(Nc2nccc(-c3ccc(C(=O)NCC#N)cc3)n2)cc(OC)c1OC [Compound 20, N-(cyanomethyl)-4-(2-(3,4,5-trimethoxyphenyl-amino)pyrimidin-4-yl)benzamide] | < 1000 | < 1000 | < 5000 | < 100 | < 100 |
| O=C(NCC1CCCO1)c1ccc(-c2ccnc(Nc3ccc(N4CCOCC4)cc3)n2)cc1 (centres unmarked) [Compound 21, 4-(2-(4-morpholinophenyl-amino)pyrimidin-4-yl)-N-((tetrahydrofuran-2-yl)methyl)benzamide] | < 20000 | < 20000 | < 20000 | < 500 | < 500 |
| O=C(Nc1cc[nH]n1)c1ccc(-c2ccnc(Nc3ccc(N4CCOCC4)cc3)n2)cc1 [Compound 22, 4-(2-(4-morpholinophenyl-amino)pyrimidin-4-yl)-N-(1H-pyrazol-3-yl)benzamide] | – | > 20000 | – | > 1000 | < 500 |
| CC(C)(C#N)NC(=O)c1ccc(-c2ccnc(Nc3ccc(N4CCOCC4)cc3)n2)cc1 [Compound 23, N-(2-cyanopropan-2-yl)-4-(2-(4-morpholinophenyl-amino)pyrimidin-4-yl)benzamide] | – | – | – | < 1000 | < 500 |
| N#CCNC(=O)c1ccc(-c2ccnc(Nc3ccc(N4CCSCC4)cc3)n2)cc1 [Compound 25, N-(cyanomethyl)-4-(2-(4-thiomorpholino-phenylamino)pyrimidin-4-yl)benzamide] | – | – | < 5000 | – | – |
| CS(=O)(=O)N(CC#N)c1ccc(-c2ccnc(Nc3ccc(N4CCOCC4)cc3)n2)cc1 [Compound 31, N-(cyanomethyl)-N-(4-(2-(4-morpholinophenyl-amino)pyrimidin-4-yl)phenyl)methane-sulfonamide] | < 5000 | < 5000 | < 5000 | < 100 | < 500 |
| N#CCNC(=O)c1ccc(-c2ccnc(Nc3ccc(N4CCC(O)CC4)cc3)n2)cc1 [Compound 36, N-(cyanomethyl)-4-(2-(4-(4-hydroxypiperidin-1-yl)phenylamino)pyrimidin-4-yl)benzamide] | < 5000 | < 1000 | < 5000 | – | < 100 |
| Cc1cnc(Nc2ccc(N3CCC(CO)CC3)cc2)nc1-c1ccc(C(=O)NCC#N)cc1 [Compound 39, N-(cyanomethyl)-4-(2-(4-(4-(hydroxymethyl)piperidin-1-yl)phenylamino)-5-methylpyrimidin-4-yl)benzamide] | < 5000 | < 1000 | < 5000 | – | < 100 |
| CN1CCN(c2ccc(Nc3nccc(-c4ccc(C(=O)NCC#N)cc4)n3)cc2)CC1 [Compound 44, N-(cyanomethyl)-4-(2-(4-(4-methylpiperazin-1-yl)phenylamino)pyrimidin-4-yl)benzamide] | < 5000 | – | < 5000 | – | < 500 |
| COc1cc(-c2ccnc(Nc3ccc(N4CCOCC4)cc3)n2)ccc1C(=O)NCC#N [Compound 45, N-(cyanomethyl)-2-methoxy-4-(2-(4-morpholinophenyl-amino)pyrimidin-4-yl)benzamide] | – | – | < 1000 | < 100 | < 100 |
| Cc1cnc(Nc2ccc(N3CCCC(O)C3)cc2)nc1-c1ccc(C(=O)NCC#N)cc1 (centres unmarked) [Compound 46] | < 5000 | – | < 1000 | – | – |
| N#CCC(=O)Nc1ccc(-c2ccnc(Nc3ccc(N4CCOCC4)cc3)n2)cc1 [Compound 85, 2-cyano-N-(4-(2-(4-morpholinophenyl-amino)pyrimidin-4-yl)phenyl)acetamide] | < 5000 | – | < 1000 | – | – |
| N#CCNC(=O)c1ccc(-c2ccnc(Nc3ccc(CN4CCS(=O)(=O)CC4)cc3)n2)cc1 [Compound 90] | < 1000 | – | < 20000 | < 100 | – |
| Cc1cnc(Nc2ccc(N3CCOCC3)cc2)nc1-c1ccc(C(=O)NCC#N)cc1 [Compound 92, N-(cyanomethyl)-4-(5-methyl-2-(4-morpholinophenyl-amino)pyrimidin-4-yl)benzamide] | – | – | < 1000 | < 100 | < 100 |
